We go through 3 compounds from ChEMBL document CHEMBL4385608, “5-Aryl-1,3,4-oxadiazol-2-ylthioalkanoic Acids: A Highly Potent New Class of Inhibitors of Rho/Myocardin-Related Transcription Factor (MRTF)/Serum Response Factor (SRF)-Mediated Gene Transcription as Potential Antifibrotic Agents for Scleroderma” (J Med Chem, 2019).

The nature of series [1]: Half-life in CD-1 mouse at 3 mg/kg, po by LC-MS/MS analysis. Particulars: in vivo. The series is classed as ADME, organism-based.
In series [2] the test system is PC-3. The series is described as follows: Cytotoxicity against human PC3 cells assessed as reduction in cell viability up to 100 uM by WST-1 assay relative to control. The series is classed as cell-based.
Series [3] in a line: Half-life in CD-1 mouse at 10 mg/kg, po by LC-MS/MS analysis. Type of series: ADME, organism-based. Particulars: in vivo.
The nature of series [4]: AUC in CD-1 mouse at 30 mg/kg, po by LC-MS/MS analysis. Type of series: ADME, organism-based. To be noted: in vivo.
Series [5] is described as follows: AUC in CD-1 mouse at 10 mg/kg, po by LC-MS/MS analysis. Type of series: ADME, organism-based. To be noted: in vivo.
Series [6] in a line: AUC in CD-1 mouse at 3 mg/kg, iv by LC-MS/MS analysis. The series is classed as ADME, organism-based. To be noted: in vivo.
Series [7] is described as follows: Cmax in CD-1 mouse at 30 mg/kg, po by LC-MS/MS analysis. Also noted: dose 30 mg/kg, route oral. Type of series: ADME, organism-based. Particulars: in vivo.
Series [8] in a line: AUC in CD-1 mouse at 3 mg/kg, po by LC-MS/MS analysis. The series is classed as ADME, organism-based. Particulars: in vivo.
Series [9] concerns HEK-293T. Put plainly: Cytotoxicity against HEK293T cells assessed as reduction in cell viability up to 100 uM by WST-1 assay relative to control. Particulars: human. Type of series: cell-based.
Series [10] is filed under the species Homo sapiens. The series is described as follows: Inhibition of Rho/MRTF/SRF pathway in human primary dermal fibroblasts assessed as reduction in LPA-stimulated CTGF mRNA expression preincubated for 72 hrs followed by LPA stimulation and measured after 1 hr by qPCR analysis. (In qPCR the cycle at which signal appears reflects the starting amount.)
Series [11] in a line: Oral bioavailability in CD-1 mouse at 3 mg/kg by LC-MS/MS analysis. Type of series: ADME, organism-based. Particulars: in vivo.
The nature of series [12]: Half-life in CD-1 mouse at 30 mg/kg, po by LC-MS/MS analysis. To be noted: in vivo. Type of series: ADME, organism-based.
Series [13] can be described thus: Cmax in CD-1 mouse at 10 mg/kg, po by LC-MS/MS analysis. The series is classed as ADME, organism-based. Also on record: dose 10 mg/kg, route oral. To be noted: in vivo.
Series [14] can be described thus: Equilibrium solubility of the compound in phosphate buffer saline. The series is classed as physicochemical.
The subject of series [15] is Mus musculus. The series is described as follows: Antifibrotic activity in bleomycin-induced C57BL/6 mouse model of dermal fibrosis assessed as decrease in hydroxyproline content at 3 to 10 mg/kg, po administered via gavage for 14 days measured post-last dose. The series is classed as functional, organism-based.
The nature of series [16]: Cmax in CD-1 mouse at 3 mg/kg, po by LC-MS/MS analysis. Type of series: ADME, organism-based. Also on record: dose 3 mg/kg, route oral. To be noted: in vivo.
A short description of series [17]: Inhibition of Rho/MRTF/SRF pathway (unknown origin) expressed in HEK293T cells assessed as reduction in Galpha12-stimulated MRTF-selective SRE.L promoter-driven luciferase activity after overnight incubation by luminescence assay. The series is classed as cell-based, Homo sapiens.
Series [18] can be described thus: Half-life in CD-1 mouse at 3 mg/kg, iv by LC-MS/MS analysis. Particulars: in vivo. The series is classed as ADME, organism-based.
A short description of series [19]: Half-life in CD-1 mouse liver microsomes at 1 uM in presence of NADPH by LC-MS/MS analysis. The series is classed as ADME, Microsome.
Series [20] can be described thus: Oral bioavailability in CD-1 mouse at 30 mg/kg by LC-MS/MS analysis. The series is classed as ADME, organism-based. To be noted: in vivo.
Series [21] in a line: Clearance in CD-1 mouse at 3 mg/kg, iv by LC-MS/MS analysis. To be noted: in vivo. Type of series: ADME, organism-based.
The species entered for series [22] is Homo sapiens. The series is described as follows: Inhibition of Rho/MRTF/SRF pathway in human primary dermal fibroblasts assessed as reduction in LPA-stimulated CTGF mRNA expression preincubated for 48 hrs followed by LPA stimulation and measured after 1 hr by qPCR analysis.
The nature of series [23]: Inhibition of Rho/MRTF/SRF pathway (unknown origin) expressed in human PC3 cells assessed as reduction in Galpha12 Q231L-stimulated MRTF-selective SRE.L promoter-driven luciferase activity after overnight incubation by luminescence assay. Type of series: cell-based.
The nature of series [24]: Oral bioavailability in CD-1 mouse at 10 mg/kg by LC-MS/MS analysis. The series is classed as ADME, organism-based. Particulars: in vivo.
Series [25] deals with Mus musculus. Put plainly: Antifibrotic activity in bleomycin-induced C57BL/6 mouse model of dermal fibrosis assessed as decrease in dermal thickness at 3 to 10 mg/kg, po administered via gavage for 14 days measured post-last dose by Masson's trichrome-staining based microscopic method. The series is classed as functional, organism-based.
Series [26] can be described thus: Cmax in CD-1 mouse at 3 mg/kg, iv by LC-MS/MS analysis. Type of series: ADME, organism-based. Also noted: dose 3 mg/kg, route intravenous. To be noted: in vivo.
Series [27] is filed under the species Homo sapiens. The series is described as follows: Inhibition of Rho/MRTF/SRF pathway (unknown origin) expressed in human PC3 cells assessed as reduction in Galpha12 Q231L-stimulated MRTF-selective SRE.L promoter-driven luciferase activity up to 100 uM after overnight incubation by luminescence assay. The series is classed as cell-based.
The species named for series [28] is Homo sapiens. The series is described as follows: Inhibition of Rho/MRTF/SRF pathway in human primary dermal fibroblasts assessed as reduction in LPA-stimulated CTGF mRNA expression by measuring CTGF mRNA level at 10^-6 M preincubated for 72 hrs followed by LPA stimulation and measured after 1 hr by qPCR analysis relative to control. Also noted: scale not given: the % may be the effect or the level left.

Series [29] deals with PC-3. The series is described as follows: Cytotoxicity against human PC3 cells assessed as reduction in cell viability up to 100 uM by CellTiter-Fluor assay. The series is classed as cell-based.
Series [30] relates to PC-3. The series is described as follows: Cytotoxicity against human PC3 cells assessed as reduction in cell viability by CellTiter-Fluor assay. The series is classed as cell-based.

pIC50: −log10 of the molar value. Calls of active or inactive are those of the source. No cut-off for these calls is given here. Bounds are passed on as bounds.

As for `O=C(O)CCCSc1nnc(-c2ccc(C3CC3)cc2Cl)o1`, the half-life in series [1] was 1.6 h; in series [3], 1.8 h; in series [12] it was 2.2 h; in series [18], 1.7 h. Besides, the Activity in series [2] and in series [9] was < 5% throughout. The AUC in [4] stood at 9500 ng·h/mL; in series [5], 1830 ng·h/mL; in [6], 3260 ng·h/mL; in series [8], 361 ng·h/mL. The Cmax in series [7] is 10100 ng/mL; in series [13], 1430 ng/mL; in [16] it was 397 ng/mL; in [26] it was 8140 ng/mL. Moreover, the inhibition entry in [10] is “Dose-dependent effect”. Besides, the bioavailability came to 11% in series [11], 29% in series [20] and 17% in series [24]. The thermodynamic solubility in series [14] is > 1000 µM. The result in [15] and in series [25] was Active. The pIC50 in series [17] and in [23] was 12.00 throughout. Moreover, in series [19], the t1/2 stood at 0.783 h. Moreover, in [21], the clearance is 15.4 mL/min/kg. In addition, in series [22], the inhibition entry was “inactive”.
For the compound `Cc1ccc(=O)n(-c2ccccc2)c1` [PIRFENIDONE], the inhibition result in series [27] was “inactive”. Besides, the results for the Activity in series [28] and in series [29] were 91% and “Toxic”, respectively.
For the compound `COC(=O)c1ccc2c(c1)NC(=O)/C2=C(\Nc1ccc(N(C)C(=O)CN2CCN(C)CC2)cc1)c1ccccc1` [NINTEDANIB], the Activity in series [28] turned out to be 45%. Besides, the negative-log IC50 (pIC50) is > 4.52 in [30] and 5.89 in series [23].

Broadly, the half-life is how long it takes for the measured level to halve. For orientation: AUC means concentration integrated over time. The Cmax is the peak of the concentration-time curve. In general, bioavailability refers to the share of a dose that reaches the circulation, judged against a reference dose that is usually intravenous. The solubility (thermodynamic) is the concentration in solution at equilibrium with solid. By pIC50 is commonly meant −log10 of the IC50, conventionally taken in molar units. The term clearance denotes the volume of plasma or blood freed of the substance per unit of time.
